For assay [1], the target named is T1, PP2A (Homo sapiens, UniProt P67775). The assay is described as follows: PP2A activity in response to ceramides and FTY720 compounds (FIG. 8). The assay is classed as biochemical. The following applies: for PP2A activity in response to Ceramides: FIG. 8A; for PP2A activity in response to compounds: FIG. 8B, C2 ceramide as internal control.
Assay [2] has as its system BDNF expression in neurons. The assay is described as follows: BDNF trophic factor expression in neurons (FIG. 6). The format is cell-based.
In assay [3] the test system is PP2A. The assay is described as follows: PP2A activity, cellular assay (FIG. 4B). The format is cell-based.
Assay [4] relates to C57/B16 Mice mouse model of Parkinson's disease. The assay is described as follows: Paraquat mouse model of Parkinson's disease, brain immunohistochemistry (FIG. 5). The assay is classed as in vivo.
For the next assay, the system named is S1P receptors. The following applies: with the exception of S1P2; cited from earlier work.
Assay [5] addresses T1, PP2A. The assay is described as follows: PP2A activity, cell free assay (FIG. 4A). The assay is classed as biochemical.
Assay [6] deals with control and mutant A53T Syn PD mice. In words: Anxiety levels in control and mutant A53T Syn PD mice (FIG. 7B). The assay is classed as in vivo, mouse.
For assay [7] the test system is unchanged. The assay is described as follows: Grip strength in control and mutant A53T Syn PD mice (FIG. 7A). The format is in vivo, mouse. The following applies: 5 month old mice, FTY720 twice a week for 14 weeks versus vehicle.
In another assay the target is rPP2A (Homo sapiens, UniProt P67775). In words: recombinant PP2A (rPP2A) activity with FTY720 compounds. The format is biochemical. The settings on record: versus rPP2A alone; for effect on rPP2A activity: across tested concentrations.
The subject of assay [8] is PP2A in mouse adrenal gland. The assay is described as follows: PP2A activity in mouse adrenal gland after single dosing (FIG. 9B, 9D, 9F). The format is in vivo. The settings on record: for effect on PP2A in mouse adrenal gland, IV delivery: single dose (FIG. 9D, 9F).

Sequence of rPP2A (P67775 whole entry): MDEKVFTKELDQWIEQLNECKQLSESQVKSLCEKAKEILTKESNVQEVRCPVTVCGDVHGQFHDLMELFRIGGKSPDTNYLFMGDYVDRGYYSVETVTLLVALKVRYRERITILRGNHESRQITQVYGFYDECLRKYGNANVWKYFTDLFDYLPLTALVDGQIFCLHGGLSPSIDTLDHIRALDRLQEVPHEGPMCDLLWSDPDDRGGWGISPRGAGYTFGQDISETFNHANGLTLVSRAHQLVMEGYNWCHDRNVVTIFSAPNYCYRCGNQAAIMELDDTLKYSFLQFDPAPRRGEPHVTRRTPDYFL
T1 sequence (P67775 whole entry): as above

Regarding `CCCCCCCCCCCCC/C=C/[C@@H](O)[C@H](CO)NC(C)=O` [C2 ceramide], at PP2A [1], the “PP2A activity in response to Ceramides” value is “able to stimulate PP2A activity” and the “PP2A activity in response to compounds” value was “significantly stimulate PP2A activity”.
Consider `CCCCCCCCCCCCCC=CC(O)C(CO)NC(=O)CCCCC` (stereo not shown) [Ceramide C6], for which the “PP2A activity in response to Ceramides” value on PP2A [1] is recorded as “able to stimulate PP2A activity”.
Take `CCCCCCCCc1ccc(CCC(N)(CO)CO)cc1` [FTY720, 2-amino-2-[2-(4-octylphenyl)ethyl]-1,3-propanediol]: in [2] (neurons (FIG. 6B)), the “BDNF expression at the message level” value was “increased BDNF expression at the message level”. In addition, the “BDNF at the protein level” value in assay [2] (neurons treated with FTY720, blot (FIG. 6A)) is given as “increased BDNF at the protein level”. Besides, the “PP2A activity, cellular” value with PP2A [3] was “stimulates PP2A activity”. Besides, in assay [4] (C57/B16 mice, FTY720 given before paraquat (PQ)), the Paraquat toxicity result is recorded as “blocks Paraquat Toxicity”. Also, the “paraquat-stimulated increase in Syn in dopamine neurons” value in assay [4] (PQ given after FTY720, immunohistochemistry, TH-labelled neurons) is “blocks the increase in Syn”. The “neuroinflammation as measured by microglial Ibal staining” value in assay [4] (adjacent tissue section) is “reduces neuroinflammation”. Moreover, the “agonism of S1P receptors” value with S1P receptors is given as “potent agonists of S1P receptors with the exception of S1P2”. Further, the “PP2A activity, cell free” value at PP2A [5] is given as “stimulates PP2A activity”. The anxiety levels result in assay [6] was “reduces anxiety levels”. For the same compound, in assay [7], the mouse grip strength result is recorded as “improves mouse grip strength”. Moreover, on rPP2A, the “effect on rPP2A activity at 10 uM” value is listed as “not significantly greater than rPP2A alone” and the “effect on rPP2A activity” value was “increases rPP2A activity more at lower concentrations than at higher concentrations”. Further, the “PP2A activity in response to compounds” value on PP2A [1] is on record as “significantly stimulate PP2A activity”.
Turning to `CCCCCCCCc1ccc(CCC(CO)(CO)NC(C)=O)cc1` [FTY720-C2, N-(1-hydroxy-2-(hydroxymethyl)-4-(4-octylphenyl)butan-2-yl)ethanamide], the “effect on PP2A in mouse adrenal gland, IV delivery” value in [8] is reported as “stimulatory effects”. The “effect on PP2A in mouse adrenal gland, oral delivery” value in assay [8] (gavage, single dose (FIG. 9B)) was “stimulatory effects”. The “effect on rPP2A activity” value at rPP2A is reported as “biggest effect”. Besides, the “PP2A activity in response to compounds” value at PP2A [1] was “significantly stimulate PP2A activity”.
In the case of `CCCCCCCCc1ccc(CCC(CO)(CO)NC(=O)CC[P+](c2ccccc2)(c2ccccc2)c2ccccc2)cc1` [FTY720-Mitoxy, (3-(1-hydroxy-2-(hydroxymethyl)-4-(4-octylphenyl)butan-2-ylamino)-3-oxopropyl) triphenyl phosphonium bromide], the “effect on PP2A in mouse adrenal gland, IV delivery” value in assay [8] is recorded as “stimulatory effects”. On rPP2A, the “effect on rPP2A activity at 10 uM” value is on record as “significant inhibitory effect” and the “effect on rPP2A activity” value is listed as “moderate effect”. The “PP2A activity in response to compounds” value on PP2A [1] is reported as “significantly stimulate PP2A activity”.
Regarding `CCCCCCCCc1ccc(CCC(N)(CO)COP(=O)(O)O)cc1` (stereo not shown) [FTY720-P, 2-amino-2-[2-(4-octylphenyl)ethyl]propane-1,3-diol phosphate], the “agonism of S1P receptors” value in the assay on S1P receptors is “potent agonists of S1P receptors with the exception of S1P2”.

These data come from patent US10391066B2, “Compositions and methods for the treatment of Parkinson's disease” (Texas Tech University System, priority 2012, dated 2019).
